These results are taken from ChEMBL document CHEMBL4765467, “Improving Thermodynamic Stability and Anticoagulant Activity of a Thrombin Binding Aptamer by Incorporation of 8-trifluoromethyl-2'-deoxyguanosine” (J Med Chem, 2021).

Activity calls are given as the source filed them. The calls are words filed in the database; no cut-off is given here.

Data set [1] relates to Plasma. The experiment in a line: Anticoagulant activity in human plasma assessed prothrombin time in presence of complementary sequence of TBA. It is filed as functional, cell-free.
A short description of data set [2]: Stability in 50% human plasma assessed as compound degradation at 50 uM measured within 3 hrs by PAGE analysis. The class given is ADME, cell-free.
Data set [3] relates to Plasma. The experiment in a line: Anticoagulant activity in human plasma assessed prothrombin time in presence of 1.5 fold complementary sequence of TBA. The class given is functional, cell-free.
In data set [4] the test system is Plasma. The data set is described as follows: Anticoagulant activity in human plasma assessed prothrombin time at 0.25 to 1 uM. The class given is functional. Particulars: dose 0.25-1 µM.
Data set [5] in a line: Thermodynamic stability assessed as change in melting temperature by CD spectroscopy relative to TBA. It is filed as physicochemical.

For `Cc1cn([C@H]2C[C@H](OP(=O)(O)OC[C@H]3O[C@@H](n4cnc5c(=O)[nH]c(N)nc54)C[C@@H]3OP(=O)(O)OC[C@H]3O[C@@H](n4cc(C)c(=O)[nH]c4=O)C[C@@H]3OP(=O)(O)OC[C@H]3O[C@@H](n4cnc5c(=O)[nH]c(N)nc54)C[C@@H]3OP(=O)(O)OC[C@H]3O[C@@H](n4cnc5c(=O)[nH]c(N)nc54)C[C@@H]3OP(=O)(O)OC[C@H]3O[C@@H](n4cc(C)c(=O)[nH]c4=O)C[C@@H]3OP(=O)(O)OC[C@H]3O[C@@H](n4cc(C)c(=O)[nH]c4=O)C[C@@H]3OP(=O)(O)OC[C@H]3O[C@@H](n4cnc5c(=O)[nH]c(N)nc54)C[C@@H]3OP(=O)(O)OC[C@H]3O[C@@H](n4cnc5c(=O)[nH]c(N)nc54)C[C@@H]3O)[C@@H](COP(=O)(O)O[C@H]3C[C@H](n4cc(C)c(=O)[nH]c4=O)O[C@@H]3COP(=O)(O)O[C@H]3C[C@H](n4cnc5c(=O)[nH]c(N)nc54)O[C@@H]3COP(=O)(O)O[C@H]3C[C@H](n4cnc5c(=O)[nH]c(N)nc54)O[C@@H]3COP(=O)(O)O[C@H]3C[C@H](n4cc(C)c(=O)[nH]c4=O)O[C@@H]3COP(=O)(O)O[C@H]3C[C@H](n4cc(C)c(=O)[nH]c4=O)O[C@@H]3COP(=O)(O)O[C@H]3C[C@H](n4cnc5c(=O)[nH]c(N)nc54)O[C@@H]3COP(=O)(O)O[C@H]3C[C@H](n4cnc5c(=O)[nH]c(N)nc54)O[C@@H]3COP(=O)(O)O)O2)c(=O)[nH]c1=O`, the outcome in the data set with Plasma [1] and with Plasma [3] was inactive. For the same compound, the Stabilty entry in data set [2] is listed as “Stable”. Moreover, the PT in the data set with Plasma [4] is 19.2 s.
For the compound `Cc1cn([C@H]2C[C@H](OP(=O)(O)OC[C@H]3O[C@@H](n4cnc5c(=O)[nH]c(N)nc54)C[C@@H]3OP(=O)(O)OC[C@H]3O[C@@H](n4cnc5c(=O)[nH]c(N)nc54)C[C@@H]3O)[C@@H](COP(=O)(O)O[C@H]3C[C@H](n4cc(C)c(=O)[nH]c4=O)O[C@@H]3COP(=O)(O)O[C@H]3C[C@H](n4cnc5c(=O)[nH]c(N)nc54)O[C@@H]3COP(=O)(O)O[C@H]3C[C@H](n4cnc5c(=O)[nH]c(N)nc54)O[C@@H]3COP(=O)(O)O[C@H]3C[C@H](n4cc(C)c(=O)[nH]c4=O)O[C@@H]3COP(=O)(O)O[C@H]3C[C@H](n4cnc5c(=O)[nH]c(N)nc54)O[C@@H]3COP(=O)(O)O[C@H]3C[C@H](n4cc(C)c(=O)[nH]c4=O)O[C@@H]3COP(=O)(O)O[C@H]3C[C@H](n4cnc5c(=O)[nH]c(N)nc54)O[C@@H]3COP(=O)(O)O[C@H]3C[C@H](n4c(C(F)(F)F)nc5c(=O)[nH]c(N)nc54)O[C@@H]3COP(=O)(O)O[C@H]3C[C@H](n4cc(C)c(=O)[nH]c4=O)O[C@@H]3COP(=O)(O)O[C@H]3C[C@H](n4cc(C)c(=O)[nH]c4=O)O[C@@H]3COP(=O)(O)O[C@H]3C[C@H](n4cnc5c(=O)[nH]c(N)nc54)O[C@@H]3COP(=O)(O)O[C@H]3C[C@H](n4cnc5c(=O)[nH]c(N)nc54)O[C@@H]3COP(=O)(O)O)O2)c(=O)[nH]c1=O`, the Stabilty result in data set [2] is “Unstable”. Further, the deltaTm in data set [5] amounted to 8.1 °C. In the data set on Plasma [4], the PT amounted to 26 s.
Turning to `Cc1cn([C@H]2C[C@H](OP(=O)(O)OC[C@H]3O[C@@H](n4cnc5c(=O)[nH]c(N)nc54)C[C@@H]3OP(=O)(O)OC[C@H]3O[C@@H](n4cnc5c(=O)[nH]c(N)nc54)C[C@@H]3OP(=O)(O)OC[C@H]3O[C@@H](n4cc(C)c(=O)[nH]c4=O)C[C@@H]3OP(=O)(O)OC[C@H]3O[C@@H](n4c(C(F)(F)F)nc5c(=O)[nH]c(N)nc54)C[C@@H]3OP(=O)(O)OC[C@H]3O[C@@H](n4cc(C)c(=O)[nH]c4=O)C[C@@H]3OP(=O)(O)OC[C@H]3O[C@@H](n4cnc5c(=O)[nH]c(N)nc54)C[C@@H]3OP(=O)(O)OC[C@H]3O[C@@H](n4cnc5c(=O)[nH]c(N)nc54)C[C@@H]3OP(=O)(O)OC[C@H]3O[C@@H](n4cc(C)c(=O)[nH]c4=O)C[C@@H]3OP(=O)(O)OC[C@H]3O[C@@H](n4cc(C)c(=O)[nH]c4=O)C[C@@H]3OP(=O)(O)OC[C@H]3O[C@@H](n4cnc5c(=O)[nH]c(N)nc54)C[C@@H]3OP(=O)(O)OC[C@H]3O[C@@H](n4cnc5c(=O)[nH]c(N)nc54)C[C@@H]3O)[C@@H](COP(=O)(O)O[C@H]3C[C@H](n4cc(C)c(=O)[nH]c4=O)O[C@@H]3COP(=O)(O)O[C@H]3C[C@H](n4cnc5c(=O)[nH]c(N)nc54)O[C@@H]3COP(=O)(O)O[C@H]3C[C@H](n4cnc5c(=O)[nH]c(N)nc54)O[C@@H]3COP(=O)(O)O)O2)c(=O)[nH]c1=O`, the Stabilty result in data set [2] is “Unstable”. The deltaTm in data set [5] is -3.1 °C. Besides, the PT with Plasma [4] is 19.1 s.
Turning to `Cc1cn([C@H]2C[C@H](OP(=O)(O)OC[C@H]3O[C@@H](n4cnc5c(=O)[nH]c(N)nc54)C[C@@H]3OP(=O)(O)OC[C@H]3O[C@@H](n4cnc5c(=O)[nH]c(N)nc54)C[C@@H]3OP(=O)(O)OC[C@H]3O[C@@H](n4cc(C)c(=O)[nH]c4=O)C[C@@H]3OP(=O)(O)OC[C@H]3O[C@@H](n4cnc5c(=O)[nH]c(N)nc54)C[C@@H]3OP(=O)(O)OC[C@H]3O[C@@H](n4cc(C)c(=O)[nH]c4=O)C[C@@H]3OP(=O)(O)OC[C@H]3O[C@@H](n4cnc5c(=O)[nH]c(N)nc54)C[C@@H]3OP(=O)(O)OC[C@H]3O[C@@H](n4cnc5c(=O)[nH]c(N)nc54)C[C@@H]3OP(=O)(O)OC[C@H]3O[C@@H](n4cc(C)c(=O)[nH]c4=O)C[C@@H]3OP(=O)(O)OC[C@H]3O[C@@H](n4cc(C)c(=O)[nH]c4=O)C[C@@H]3OP(=O)(O)OC[C@H]3O[C@@H](n4cnc5c(=O)[nH]c(N)nc54)C[C@@H]3OP(=O)(O)OC[C@H]3O[C@@H](n4cnc5c(=O)[nH]c(N)nc54)C[C@@H]3O)[C@@H](COP(=O)(O)O[C@H]3C[C@H](n4cc(C)c(=O)[nH]c4=O)O[C@@H]3COP(=O)(O)O[C@H]3C[C@H](n4cnc5c(=O)[nH]c(N)nc54)O[C@@H]3COP(=O)(O)O[C@H]3C[C@H](n4c(C(F)(F)F)nc5c(=O)[nH]c(N)nc54)O[C@@H]3COP(=O)(O)O)O2)c(=O)[nH]c1=O`, in data set [2], the Stabilty result was “Unstable”. For the same compound, the deltaTm in data set [5] was 5.7 °C. In the data set with Plasma [4], this compound yielded a PT of 18.3 s.
For the compound `Cc1cn([C@H]2C[C@H](OP(=O)(O)OC[C@H]3O[C@@H](n4cnc5c(=O)[nH]c(N)nc54)C[C@@H]3OP(=O)(O)OC[C@H]3O[C@@H](n4cnc5c(=O)[nH]c(N)nc54)C[C@@H]3OP(=O)(O)OC[C@H]3O[C@@H](n4cc(C)c(=O)[nH]c4=O)C[C@@H]3OP(=O)(O)OC[C@H]3O[C@@H](n4cnc5c(=O)[nH]c(N)nc54)C[C@@H]3OP(=O)(O)OC[C@H]3O[C@@H](n4cc(C)c(=O)[nH]c4=O)C[C@@H]3OP(=O)(O)OC[C@H]3O[C@@H](n4cnc5c(=O)[nH]c(N)nc54)C[C@@H]3OP(=O)(O)OC[C@H]3O[C@@H](n4cnc5c(=O)[nH]c(N)nc54)C[C@@H]3OP(=O)(O)OC[C@H]3O[C@@H](n4cc(C)c(=O)[nH]c4=O)C[C@@H]3OP(=O)(O)OC[C@H]3O[C@@H](n4cc(C)c(=O)[nH]c4=O)C[C@@H]3OP(=O)(O)OC[C@H]3O[C@@H](n4cnc5c(=O)[nH]c(N)nc54)C[C@@H]3OP(=O)(O)OC[C@H]3O[C@@H](n4cnc5c(=O)[nH]c(N)nc54)C[C@@H]3O)[C@@H](COP(=O)(O)O[C@H]3C[C@H](n4cc(C)c(=O)[nH]c4=O)O[C@@H]3COP(=O)(O)O[C@H]3C[C@H](n4c(C(F)(F)F)nc5c(=O)[nH]c(N)nc54)O[C@@H]3COP(=O)(O)O[C@H]3C[C@H](n4cnc5c(=O)[nH]c(N)nc54)O[C@@H]3COP(=O)(O)O)O2)c(=O)[nH]c1=O`, the Stabilty entry in data set [2] is on record as “Unstable”. Besides, in data set [5], the deltaTm was -17.3 °C. The same compound had a PT with Plasma [4] of 9.9 s.
`Cc1cn([C@H]2C[C@H](OP(=O)(O)OC[C@H]3O[C@@H](n4cnc5c(=O)[nH]c(N)nc54)C[C@@H]3OP(=O)(O)OC[C@H]3O[C@@H](n4cnc5c(=O)[nH]c(N)nc54)C[C@@H]3OP(=O)(O)OC[C@H]3O[C@@H](n4cc(C)c(=O)[nH]c4=O)C[C@@H]3OP(=O)(O)OC[C@H]3O[C@@H](n4cnc5c(=O)[nH]c(N)nc54)C[C@@H]3OP(=O)(O)OC[C@H]3O[C@@H](n4cc(C)c(=O)[nH]c4=O)C[C@@H]3OP(=O)(O)OC[C@H]3O[C@@H](n4c(C(F)(F)F)nc5c(=O)[nH]c(N)nc54)C[C@@H]3OP(=O)(O)OC[C@H]3O[C@@H](n4cnc5c(=O)[nH]c(N)nc54)C[C@@H]3OP(=O)(O)OC[C@H]3O[C@@H](n4cc(C)c(=O)[nH]c4=O)C[C@@H]3OP(=O)(O)OC[C@H]3O[C@@H](n4cc(C)c(=O)[nH]c4=O)C[C@@H]3OP(=O)(O)OC[C@H]3O[C@@H](n4cnc5c(=O)[nH]c(N)nc54)C[C@@H]3OP(=O)(O)OC[C@H]3O[C@@H](n4cnc5c(=O)[nH]c(N)nc54)C[C@@H]3O)[C@@H](COP(=O)(O)O[C@H]3C[C@H](n4cc(C)c(=O)[nH]c4=O)O[C@@H]3COP(=O)(O)O[C@H]3C[C@H](n4cnc5c(=O)[nH]c(N)nc54)O[C@@H]3COP(=O)(O)O[C@H]3C[C@H](n4cnc5c(=O)[nH]c(N)nc54)O[C@@H]3COP(=O)(O)O)O2)c(=O)[nH]c1=O`: the Stabilty entry in data set [2] is on record as “Unstable”. In data set [5], the deltaTm stood at 7.6 °C. In the data set with Plasma [4], this compound registered a PT of 21.9 s.
